According to PMC2648833 (Biochemistry, 2008):

Key:
Assay in all cases: […] release, TLC
Type in all cases: biochemical
Settings in all cases: labelled compound; 1 mM ATP, 2 mM MgCl2, salmon sperm DNA, Tris-HCl pH 8.0, 37 °C
[1] = molecular target: UvrD2 (MsmUvrD2), full-length (Mycolicibacterium smegmatis, UniProt A0QTT0, C614A/C617A)
[2] = molecular target: UvrD2 (MsmUvrD2), full-length (Mycolicibacterium smegmatis, UniProt A0QTT0)
UvrD2-(1-630) (ΔHRDC) = UvrD2-(1-630) (ΔHRDC) (Mycolicibacterium smegmatis, UniProt A0QTT0)

Nc1ncnc2c1ncn2[C@@H]1O[C@H](COP(=O)(O)OP(=O)(O)OP(=O)(O)O)[C@@H](O)[C@H]1O [ATP]
32Pi release, TLC [1]: The paired cysteine mutations had no deleterious effect on DNA-dependent ATPase specific activity
32Pi release, TLC [2]: The two proteins displayed virtually identical specific activity for ATP hydrolysis
32Pi release, TLC (UvrD2-(1-630) (ΔHRDC)): The two proteins displayed virtually identical specific activity for ATP hydrolysis
